Reference: patent publication US9000179B2, “Inhibitors of proliferation and activation of signal transducer and activator of transcription (STATs)” (Board of Regents, The University of Texas System, priority 2008, dated 2015)

Tests used:
Format in all cases: cell-based
[1] = test system: Colo357FG pancreatic cancer cell line; assay: Antiproliferative activity, MTT cell viability; settings: COLO 357/FG
Description: The antiproliferative activity of the Compound of Example 1 and Example 7 have been shown in a Colo357FG pancreatic cancer cell line as follows:
(§1) A variety of cell types were seeded at a density of 50,000 cells/100 μl per well onto 96-well plates and cultured for 24-48 h in DMEM medium until they reached confluency. At confluency, 25 μl of fresh media containing WP1220 at various concentrations (0 to 100 μM) was added to the wells and incubated for 72 h at 37° C. The complex was removed, 100 μl of fresh medium was added and the cells were incubated overnight. Medium was removed and fresh medium (100 μl) was added to each well along with (20 μl) MTT solution (5 mg/ml in PBS) before incubating the cells for a further 4 h at 37° C. The reaction product was solubilised with sodium dodecyl sulfate (100 μl, 10%, w/v) in 0.01 N HCl overnight before quantifying the product using a microplate reader at 590 nm and comparing with control cells. The experiment was carried out in triplicate (n=3).

STAT3 = assay: Western blot, inhibition of STAT3 phosphorylation in Colo357FG tumor cell line; settings: FIG. 1
Description: (§2) Using phospho-tyrosine STAT3 (Y705), phospho-tyrosine Jak2 (Y1007/1008), total STAT3, total Jak2, Bcl-xL, actin (Cell Signaling Technology, Danvers, Mass.), and survivin (R&D Systems, Minneapolis, Minn.) antibodies, western blots were performed using the following methods. Briefly, (1) Samples were prepared from cells that were homogenized in a buffer protecting the protein of interest from degradation; (2) The sample was then separated using SDS-PAGE (10-15 μg protein/well) and then transferred to a membrane for detection; and (3) The membrane was incubated with a generic protein (milk proteins) to bind to any remaining sites on the membrane. A primary antibody was then added to the solution which is able to bind to its specific protein; (4) A secondary antibody-enzyme conjugate, which recognizes the primary antibody was then added to find locations where the primary antibody has bound.

U87 brain tumor = assay: Cell survival of U87 brain tumor (MTT); settings: U87, FIG. 2
Description: as §1

[2] = test system: SCOVE3 ovarian cancer cell; assay: SCOVE3 ovarian cancer cell growth (MTT); settings: SCOVE3, FIG. 3
Description: as §1

STAT-3 = assay: Western blot, STAT-3 phosphorylation in D54 brain tumor cell lines; settings: FIG. 4
Description: as §2

Row | Compound | IC50 [1] | cell survival of the U87 brain tumor (U87 brain tumor) | inhibition of SCOVE3 ovarian cancer cell growth [2] | other results
1 | C[C@H](NC(=O)/C(C#N)=C/C=C/c1cccc(Br)n1)c1ccccc1 [Example 1, (2E,4E)-5-(6-bromopyridin-2-yl)-2-cyano-N-[(1S)-1-phenylethyl]penta-2,4-dienamide] | 3.2 µM | – | – | inhibition of STAT3 phosphorylation (STAT3): inhibition of STAT3 phosphorylation
2 | C[C@H](NC(=O)/C(C#N)=C/C=C/c1cccc(Cl)n1)c1ccccc1 [Example 2, (2E,4E)-5-(6-chloropyridin-2-yl)-2-cyano-N-[(1S)-1-phenylethyl]penta-2,4-dienamide] | – | lack of cell survival | inhibition of the SCOVE3 ovarian cancer cell growth | –
3 | N#C/C(=C\C=C\c1cccc(Br)n1)C(=O)NCc1ccccc1 [Example 4, (2E,4E)-N-benzyl-5-(6-bromopyridin-2-yl)-2-cyanopenta-2,4-dienamide] | – | lack of cell survival | inhibition of the SCOVE3 ovarian cancer cell growth | –
4 | N#C/C(=C\C=C\c1cccc(Br)n1)C(=O)N[C@H](c1ccccc1)C1CC1 [Example 7, (2E,4E)-5-(6-bromopyridin-2-yl)-2-cyano-N-[(S)-cyclopropyl(phenyl)methyl]penta-2,4-dienamide] | 5.4 µM | – | – | –
5 | CCC[C@H](NC(=O)/C(C#N)=C/C=C/c1cccc(Br)n1)c1ccccc1 [Example 9, (2E,4E)-5-(6-bromopyridin-2-yl)-2-cyano-N-[(1S)-1-phenylbutyl]penta-2,4-dienamide] | – | – | – | inhibition of IL-2 phosphorylation of STAT-3 (STAT-3): constitutively inhibiting the IL-2 phosphorylation of STAT-3
